Measured values taken from patent US12146004B2, “Polymyxin compounds and uses thereof” (priority 2014, dated 2024).
≈ marks a conversion by molar mass, not a printed value. Read-outs that look alike come from different tables or passages of the source. Numbered stars: 1 amine (or outer) side, 2 acyl side, 3 side chain; on linkers, the order of the positions; unused ones are H or OH. Bridge positions count the residues as written; N and C are the ends. Square brackets hold non-standard residues; d marks the D form. Peptide text beside a SMILES is read from it. * marks the point of attachment. ξ: configuration not given here. X5 = CCCCCCCCc1ccc(C[C@@H](N[*:1])C(=O)[*:2])cc1; X23 = NCC[C@H](OCc1ccccc1)C(=O)*; dCha = N[C@H](CC1CCCCC1)C(=O)O; Thr(3ξ) = CC(O)[C@H](N)C(=O)O; X4 = CC(C)CC1CNCC(C(=O)*)C1; Dab = NCC[C@H](N)C(=O)O; Dap = NC[C@H](N)C(=O)O; X18 = CCCCC(CCN)C(=O)*

Assays:
Format in all cases: cell-based
Pseudomonas aeruginosa = system: Pseudomonas aeruginosa
Procedure, shortened: (§1)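 MIC (μg/mL) from susceptibility testing; up to nine strains per species, incl. resistant and Polymyxin-elevated-MIC strains.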

Acinetobacter baumannii = system: Acinetobacter baumannii
Procedure, shortened: as §1

Escherichia coli = system: Escherichia coli
Procedure, shortened: as §1

Klebsiella pneumoniae = system: Klebsiella pneumoniae
Procedure, shortened: as §1

MIC P. aeruginosa 068 (Pseudomonas aeruginosa)	MIC P. aeruginosa ATCC 27853 (Pseudomonas aeruginosa)	MIC A. baumanii ATCC BAA-747 (Acinetobacter baumannii)	MIC E. coli 058 (Escherichia coli)	MIC E. coli ATCC 25922 (Escherichia coli)	MIC K. pneumoniae 065 (Klebsiella pneumoniae)	Compound	MIC P. aeruginosa 068 (Pseudomonas aeruginosa; strain 068)	MIC P. aeruginosa 070 (Pseudomonas aeruginosa; strain 070)	MIC P. aeruginosa ATCC 27853 (Pseudomonas aeruginosa; strain ATCC 27853)	MIC P. aeruginosa CCUG 59347 (Pseudomonas aeruginosa; strain CCUG 59347)	MIC A. baumanii 053 (Acinetobacter baumannii; strain 053)	MIC A. baumanii 056 (Acinetobacter baumannii; strain 056)	MIC A. baumanii ATCC BAA-747 (Acinetobacter baumannii; strain ATCC BAA-747)	MIC A. baumanii NCTC 13424 (Acinetobacter baumannii; strain NCTC 13424)	MIC E. coli 058 (Escherichia coli; strain 058)	MIC E. coli 061 (Escherichia coli; strain 061)	MIC E. coli ATCC 25922 (Escherichia coli; strain ATCC 25922)	MIC K. pneumoniae 063 (Klebsiella pneumoniae; strain 063)	MIC K. pneumoniae 065 (Klebsiella pneumoniae; strain 065)	MIC K. pneumoniae ATCC 13882 (Klebsiella pneumoniae; strain ATCC 13882)	also measured
4 µg/mL (≈ 3.6 µM)	0.5 µg/mL (≈ 0.45 µM)	0.06 µg/mL (≈ 0.054 µM)	8 µg/mL (≈ 7.2 µM)	0.125 µg/mL (≈ 0.113 µM)	2 µg/mL (≈ 1.8 µM)	CCCCC(CCN)C(=O)N[C@H](C(=O)N[C@@H](CCN)C(=O)N[C@H]1CCNC(=O)[C@H]([C@@H](C)O)NC(=O)[C@H](CCN)NC(=O)[C@H](CCN)NC(=O)[C@H](CC(C)C)NC(=O)[C@@H](CC2CCCCC2)NC(=O)[C@H](CCN)NC1=O)C(C)O (stereo partly drawn) [Example 40, 2-(2-aminoethyl) hexanoyl [D-cyclohexylalanine]-6 nonapeptide.] (X18-[Thr(3ξ)][Dab][Dab][Dab][dCha]L[Dab][Dab]T; lactam 3-C)															MIC P. aeruginosa 070 (Pseudomonas aeruginosa): 8 µg/mL (≈ 7.2 µM); MIC P. aeruginosa CCUG 59347 (Pseudomonas aeruginosa): 0.5 µg/mL (≈ 0.45 µM); MIC A. baumanii 053 (Acinetobacter baumannii): >64 µg/mL; MIC A. baumanii 056 (Acinetobacter baumannii): 64 µg/mL (≈ 57.6 µM); MIC A. baumanii NCTC 13424 (Acinetobacter baumannii): 0.125 µg/mL (≈ 0.113 µM); MIC E. coli 061 (Escherichia coli): 16 µg/mL (≈ 14.4 µM); MIC E. coli NCTC 9001 (Escherichia coli): 0.03 µg/mL (≈ 0.027 µM); MIC K. pneumoniae 063 (Klebsiella pneumoniae): 16 µg/mL (≈ 14.4 µM); MIC K. pneumoniae ATCC 13882 (Klebsiella pneumoniae): 0.25 µg/mL (≈ 0.225 µM)
	4 µg/mL (≈ 3.44 µM)	4 µg/mL (≈ 3.44 µM)	32 µg/mL (≈ 27.6 µM)	2 µg/mL (≈ 1.72 µM)	>64 µg/mL	CCCCCCCCc1ccc(C[C@H]2NC(=O)[C@H](CCN)NC(=O)[C@@H](NC(=O)[C@H](CN)NC(=O)[C@@H](NC(=O)[C@@H](N)CCN)C(C)O)CCNC(=O)[C@H]([C@@H](C)O)NC(=O)[C@H](CCN)NC(=O)[C@H](CCN)NC(=O)[C@H](CC(C)C)NC2=O)cc1 (stereo partly drawn) [Example 29, L-Dab-L-Thr-L-Dap-polymyxin [D-(4-octyl Phe)]-6 heptapeptide] (H-[Dab][Thr(3ξ)][Dap][Dab][Dab][X5]L[Dab][Dab]T; lactam 4-C)															MIC P. aeruginosa CCUG 59347 (Pseudomonas aeruginosa): 8 µg/mL (≈ 6.89 µM); MIC A. baumanii NCTC 13424 (Acinetobacter baumannii): 4 µg/mL (≈ 3.44 µM)
4 µg/mL (≈ 3.26 µM)	2 µg/mL (≈ 1.63 µM)	2 µg/mL (≈ 1.63 µM)	2 µg/mL (≈ 1.63 µM)	2 µg/mL (≈ 1.63 µM)	2 µg/mL (≈ 1.63 µM)	CCCCCCCCc1ccc(C[C@H]2NC(=O)[C@H](CCN)NC(=O)[C@@H](NC(=O)[C@H](CN)NC(=O)[C@@H](NC(=O)C3CNCC(CC(C)C)C3)C(C)O)CCNC(=O)[C@H]([C@@H](C)O)NC(=O)[C@H](CCN)NC(=O)[C@H](CCN)NC(=O)[C@H](CC(C)C)NC2=O)cc1 (some centres unmarked) [Example 23] (X4-[Thr(3ξ)][Dap][Dab][Dab][X5]L[Dab][Dab]T; lactam 3-C)															MIC P. aeruginosa 070 (Pseudomonas aeruginosa): 4 µg/mL (≈ 3.26 µM); MIC A. baumanii 053 (Acinetobacter baumannii): 2 µg/mL (≈ 1.63 µM); MIC A. baumanii 056 (Acinetobacter baumannii): 1 µg/mL (≈ 0.814 µM); MIC E. coli 059 (Escherichia coli): 2 µg/mL (≈ 1.63 µM); MIC E. coli 060 (Escherichia coli): 2 µg/mL (≈ 1.63 µM); MIC E. coli 061 (Escherichia coli): 2 µg/mL (≈ 1.63 µM); MIC K. pneumoniae 062 (Klebsiella pneumoniae): 4 µg/mL (≈ 3.26 µM); MIC K. pneumoniae 063 (Klebsiella pneumoniae): 8 µg/mL (≈ 6.51 µM); MIC K. pneumoniae 064 (Klebsiella pneumoniae): 4 µg/mL (≈ 3.26 µM); MIC K. pneumoniae 066 (Klebsiella pneumoniae): 2 µg/mL (≈ 1.63 µM); MIC K. pneumoniae 067 (Klebsiella pneumoniae): 4 µg/mL (≈ 3.26 µM); MIC K. pneumoniae ATCC 4352 (Klebsiella pneumoniae): 1 µg/mL (≈ 0.814 µM)

The remaining lines, values behind:

Compound	MIC P. aeruginosa 068 (Pseudomonas aeruginosa)	MIC P. aeruginosa ATCC 27853 (Pseudomonas aeruginosa)	MIC A. baumanii ATCC BAA-747 (Acinetobacter baumannii)	MIC E. coli 058 (Escherichia coli)	MIC E. coli ATCC 25922 (Escherichia coli)	MIC K. pneumoniae 065 (Klebsiella pneumoniae)	MIC P. aeruginosa 068 (Pseudomonas aeruginosa; strain 068)	MIC P. aeruginosa 070 (Pseudomonas aeruginosa; strain 070)	MIC P. aeruginosa ATCC 27853 (Pseudomonas aeruginosa; strain ATCC 27853)	MIC P. aeruginosa CCUG 59347 (Pseudomonas aeruginosa; strain CCUG 59347)	MIC A. baumanii 053 (Acinetobacter baumannii; strain 053)	MIC A. baumanii 056 (Acinetobacter baumannii; strain 056)	MIC A. baumanii ATCC BAA-747 (Acinetobacter baumannii; strain ATCC BAA-747)	MIC A. baumanii NCTC 13424 (Acinetobacter baumannii; strain NCTC 13424)	MIC E. coli 058 (Escherichia coli; strain 058)	MIC E. coli 061 (Escherichia coli; strain 061)	MIC E. coli ATCC 25922 (Escherichia coli; strain ATCC 25922)	MIC K. pneumoniae 063 (Klebsiella pneumoniae; strain 063)	MIC K. pneumoniae 065 (Klebsiella pneumoniae; strain 065)	MIC K. pneumoniae ATCC 13882 (Klebsiella pneumoniae; strain ATCC 13882)	also measured
CC(C)C[C@@H]1NC(=O)[C@@H](CC2CCCCC2)NC(=O)[C@H](CCN)NC(=O)[C@@H](NC(=O)[C@H](CCN)NC(=O)[C@@H](NC(=O)CC(CN)CC2CCCCC2)[C@@H](C)O)CCNC(=O)[C@H]([C@@H](C)O)NC(=O)[C@H](CCN)NC(=O)[C@H](CCN)NC1=O (single isomer, unassigned) [Example 72, 4-amino-3-(cyclohexylmethyl) butanoyl polymyxin [D-cyclohexylalanine]-6 nonapeptide]							4 µg/mL (≈ 3.48 µM)	8 µg/mL (≈ 6.95 µM)	0.25 µg/mL (≈ 0.217 µM)	0.5 µg/mL (≈ 0.435 µM)	64 µg/mL (≈ 55.6 µM)	16 µg/mL (≈ 13.9 µM)	0.25 µg/mL (≈ 0.217 µM)	0.125 µg/mL (≈ 0.109 µM)	2 µg/mL (≈ 1.74 µM)	8 µg/mL (≈ 6.95 µM)	0.25 µg/mL (≈ 0.217 µM)	8 µg/mL (≈ 6.95 µM)	0.5 µg/mL (≈ 0.435 µM)	0.25 µg/mL (≈ 0.217 µM)	MIC E. coli NCTC 9001 (Escherichia coli; strain NCTC 9001): 0.25 µg/mL (≈ 0.217 µM)
CC(C)C[C@@H]1NC(=O)[C@@H](CC2CCCCC2)NC(=O)[C@H](CCN)NC(=O)[C@@H](NC(=O)[C@H](CCN)NC(=O)[C@@H](NC(=O)CC(CN)Cc2ccccc2)[C@@H](C)O)CCNC(=O)[C@H]([C@@H](C)O)NC(=O)[C@H](CCN)NC(=O)[C@H](CCN)NC1=O (single isomer, unassigned; isomer 1) [Example 66, 4-amino-3-benzylbutanoyl polymyxin [D-cyclohexylalanine]-6 nonapeptide isomer 1]							8 µg/mL (≈ 6.99 µM)	32 µg/mL (≈ 28 µM)	0.25 µg/mL (≈ 0.218 µM)	0.5 µg/mL (≈ 0.437 µM)	>64 µg/mL	64 µg/mL (≈ 55.9 µM)	0.125 µg/mL (≈ 0.109 µM)	0.06 µg/mL (≈ 0.0524 µM)	8 µg/mL (≈ 6.99 µM)	32 µg/mL (≈ 28 µM)	0.125 µg/mL (≈ 0.109 µM)	64 µg/mL (≈ 55.9 µM)	4 µg/mL (≈ 3.5 µM)	0.125 µg/mL (≈ 0.109 µM)	
CC(C)C[C@@H]1NC(=O)[C@@H](CC2CCCCC2)NC(=O)[C@H](CCN)NC(=O)[C@@H](NC(=O)[C@H](CN)NC(=O)[C@@H](NC(=O)[C@H](CCN)OCc2ccccc2)C(C)O)CCNC(=O)[C@H]([C@@H](C)O)NC(=O)[C@H](CCN)NC(=O)[C@H](CCN)NC1=O (stereo partly drawn) [Example 48, (S)-4-amino-2-(benzyloxy) butanoyl L-Thr-L-Dap-polymyxin [D-cyclohexylalanine]-6 heptapeptide.] (X23-[Thr(3ξ)][Dap][Dab][Dab][dCha]L[Dab][Dab]T; lactam 3-C)	8 µg/mL (≈ 6.98 µM)	0.25 µg/mL (≈ 0.218 µM)	0.125 µg/mL (≈ 0.109 µM)	4 µg/mL (≈ 3.49 µM)	0.125 µg/mL (≈ 0.109 µM)	5 µg/mL (≈ 4.36 µM)															MIC P. aeruginosa 070 (Pseudomonas aeruginosa): 16 µg/mL (≈ 14 µM); MIC P. aeruginosa CCUG 59347 (Pseudomonas aeruginosa): 0.25 µg/mL (≈ 0.218 µM); MIC A. baumanii 053 (Acinetobacter baumannii): >64 µg/mL; MIC A. baumanii 056 (Acinetobacter baumannii): 32 µg/mL (≈ 27.9 µM); MIC A. baumanii NCTC 13424 (Acinetobacter baumannii): 0.25 µg/mL (≈ 0.218 µM); MIC E. coli 061 (Escherichia coli): 32 µg/mL (≈ 27.9 µM); MIC K. pneumoniae 063 (Klebsiella pneumoniae): 64 µg/mL (≈ 55.8 µM); MIC K. pneumoniae ATCC 13882 (Klebsiella pneumoniae): 0.125 µg/mL (≈ 0.109 µM)
CC(C)C[C@@H]1NC(=O)[C@@H](CC2CCCCC2)NC(=O)[C@H](CCN)NC(=O)[C@@H](NC(=O)[C@H](CN)NC(=O)[C@@H](NC(=O)CC(CN)Cc2ccccc2)[C@@H](C)O)CCNC(=O)[C@H]([C@@H](C)O)NC(=O)[C@H](CCN)NC(=O)[C@H](CCN)NC1=O (single isomer, unassigned; isomer 1) [Example 58, 4-amino-3-benzylbutanoyl L-Thr-L-Dap-polymyxin [D-cyclohexylalanine]-6 heptapeptide. Isomer 1]							2 µg/mL (≈ 1.77 µM)	8 µg/mL (≈ 7.08 µM)	0.25 µg/mL (≈ 0.221 µM)	0.25 µg/mL (≈ 0.221 µM)	64 µg/mL (≈ 56.6 µM)	64 µg/mL (≈ 56.6 µM)	0.03 µg/mL (≈ 0.0265 µM)	0.125 µg/mL (≈ 0.111 µM)	4 µg/mL (≈ 3.54 µM)	16 µg/mL (≈ 14.2 µM)	0.25 µg/mL (≈ 0.221 µM)	64 µg/mL (≈ 56.6 µM)	4 µg/mL (≈ 3.54 µM)	0.25 µg/mL (≈ 0.221 µM)	MIC E. coli NCTC 9001 (Escherichia coli; strain NCTC 9001): 0.125 µg/mL (≈ 0.111 µM)
